Columns and labels:
LATS kinase activity [1] = assay: LATS-BS under stimuli regulating Hippo signaling (in vitro luciferase assay and live cell luciferase imaging); type: cell-based, human; details: cell lysates (luciferase assay) and live cells (BLI)
Procedure: For live cell imaging, LATS-BS or a pGL3-control vector were transfected into HEK293, MDA-MB-231 or A549 cells. After 48 hours, cells were trypsinized and collected in a black, clear bottomed, 96-well plate. 150 μg/mL D-luciferin (D-Luciferin, Potassium Salt, GoldBio #LUCK-250) in media was added to each well 5-10 min before imaging. Exposure time for images was approximately 3 min/plate. Imaging was performed using a LightTools Research system (Synopsys, Ltd., Mountain View, Calif., USA) dark box and a Hamamatsu ORCA-Flash4.0 V2 digital CMOS camera over the course of 20 minutes to establish optimal peak luciferase activity. The bioluminescence of the regions of interest was analyzed for total emission flux using Image-Pro® Plus software (Media Cybernetics, Inc., Rockville, Md., USA).
Experiments were conducted to further validate the LATS intermolecular biosensor and explore potential applications for its use. The LATS-BS responded to numerous signals reported to modulate Hippo pathway activity, including cell confluency, drugs activating Hippo signaling (Forskolin, PI3K inhibitor, PDK inhibitor, F-IBMX, and 2-deoxy-glucose) and Hippo signaling inhibitors (LPA, EGF, Insulin, S1P, and TPA). The LATS-BS is activated by LATS in various cell lines (e.g., A549, MDA-MB231).
The following compound treatments were used for in vitro luciferase assay and live cells imaging: RAF inhibitor (GW5054, Cayman Chemical, Ann Arbor, Mich., USA), ATR inhibitor (CGK733, Cayman Chemical), PI3K inhibitor 1 (GDC0941, Cayman Chemical), PI3K inhibitor 2 (LY294002, Cayman Chemical), PDK inhibitor (GSK2334470, Cayman Chemical)—10 μM for 4 hours; EGF-100 ng/mL for 1 hour; insulin (Sigma #91077C)—10 μg/ml for 1 hour, F/IBMX (Forskolin, Cayman Chemical/IBMX, Cayman Chemical)—0.1-10 μM for Forskolin and 100 μM for IBMX for 1 hour; L-α-lysophosphatidic acid (LPA) (Sigma #L7260)—0.1-10 μM for 1 hour, sphingosine1-phosphophate (S1P)—1 μM for 1 hour; 12-O-tetradecanoylphorbol-13-acetate (TPA) (#41745; Cell Signaling Technology, Inc., Danvers, Mass., USA)—5 nM for 1 hour; 2-deoxy glucose (#D8375, Sigma-Aldrich Canada Co., Oakville, Ontario, Canada)—25 mM for 1 hour.

LATS kinase activity [2] = assay: LATS-BS validation in transfected HEK293 cells (luciferase assay / western blot); type: cell-based, human; details: HEK293 co-transfected with LATS-BS and MST2, 10 μM LPA for 1 hour before collection
Procedure: In a validation study, LATS-BS was transfected alone or together with LATS2 or/and MST2 into HEK293 cells and biosensor activity or NLuc-YAP15-S127 phosphorylation status were determined 48 hours after transfection by luciferase assay or western blot, respectively. As depicted in FIG. 2C, HEK293 cells transfected with LATS-BS alone had low luciferase activity and this was correlated with a low degree of Nluc-YAP15-S127 phosphorylation. Co-transfection of LATS-BS with MST2 was associated with increases in both Nluc-YAP-S127 phosphorylation and luciferase activity, and this effect was suppressed with lysophosphatidic acid (LPA), an inhibitor of the Hippo pathway. For lysophosphatidic acid (LPA) treatment, cells were stimulated with 10 μM LPA for 1 hour before collection (n=3). LATS-BS co-expression with both MST2 and LATS2 was correlated with further increases in Nluc-YAP15-S127 phosphorylation and luciferase activity. Collectively, these observations are consistent with a model where MST2 activates LATS2, which phosphorylates Nluc-YAP15-S127, leading to binding with Cluc-14-3-3 and reconstitution of active luciferase.

Compound	LATS-BS response to signals modulating Hippo pathway activity (LATS kinase activity [1])	Nluc-YAP-S127 phosphorylation (western blot) (LATS kinase activity [2])	LATS-BS luciferase activity (LATS kinase activity [2]; n=3)
O=CC[C@@H](O)[C@H](O)[C@H](O)CO [2-deoxy-glucose, 2-deoxy glucose]	responded	–	–
Insulin: Hippo signaling inhibitor (Sigma #91077C)	responded	–	–
CNc1nc(-c2ccc3c(N)n[nH]c3c2)cc(N2C[C@@H](C(=O)NC3CCCCC3)CC[C@H]2C)n1 [PDK inhibitor]	responded	–	–
CCCCCCCCCCCCCC(=O)O[C@@H]1[C@@H](C)[C@@]2(O)[C@@H](C=C(CO)C[C@]3(O)C(=O)C(C)=C[C@@H]23)[C@@H]2C(C)(C)[C@]12OC(C)=O [TPA, 12-O-tetradecanoylphorbol-13-acetate]	responded	–	–
L-α-lysophosphatidic acid [LPA]	responded	suppressed	suppressed
EGF: Hippo signaling inhibitor	responded	–	–
CCCCCCCCCCCCC/C=C/[C@@H](O)[C@@H](N)COP(=O)(O)O [S1P, sphingosine1-phosphophate]	responded	–	–

Reference: patent US11579149B2, “Hippo pathway bioluminescent biosensor” (Queen's University at Kingston, priority 2017, dated 2023)
